Data reported in patent US20100004244A1, “USE OF CB2 RECEPTOR AGONISTS FOR PROMOTING NEUROGENESIS” (priority 2006, published 2010).
pIC50: −log10 of the molar value.

Key:
[1] = tested on: neural progenitors; assay: Neurosphere generation and self-renewal of neural progenitors; assay type: cell-based, mouse; settings: for neurosphere generation in CB2-deficient neural progenitors / primary neurosphere generation / neural progenitor self-renewal: 30 nM; for primary neurosphere generation: wild-type E17.5 progenitors, 7 days; for neural progenitor self-renewal: wild-type progenitors, 5 consecutive passages, FIG. 3C
Experimental: Multipotent self-renewing progenitors were obtained from the dissected cortices of mice at the indicated developmental stages and grown in chemically-defined medium constituted by Dulbecco's modified Eagle's and F12 media supplemented with N2 (Invitrogen), 0.6% glucose, non-essential amino acids, 50 mM Hepes, 2 μg/ml heparin, 20 ng/ml epidermal growth factor and 20 ng/ml basic fibroblast growth factor [Aguado, T. et al., J. Neurosci. 26, 1551-61, 2006]. Clonal neurospheres were cultured at 1000 cells/ml, dissociated with accutase (Sigma-Aldrich, Missouri, USA) and experiments were carried out with early (up to 10) passage neurospheres. Neurosphere generation experiments were performed in 96-well dishes with 100 μl of medium, and the number of neurospheres was quantified at predetermined time points by phase-contrast microscopy. Embryonic neural progenitors from wild-type and CB2-deficient mice were cultured (10,000 cells/ml) in the continuous presence of cannabinoids or controls for the indicated number of passages (one passage every 4 days).
Adult neural progenitors were obtained from hippocampi of 4-month-old adult mice and cultured as described above. Neural progenitor cell differentiation was performed as described.

[2] = tested on: neural progenitor cell proliferation in the dentate gyrus; assay: In vivo hippocampal neural progenitor proliferation (BrdU-positive cells in dentate gyrus); parameters: species or system mouse; settings: FIG. 4B; for hippocampal progenitor proliferation in vivo: wild-type adult mice, i.p. 5 consecutive days, HU-308 15 mg/kg, SR144528 1 mg/kg
Experimental: Adult CB2 receptor knock-out male mice (8-week old) and their respective wild-type littermates were injected i.p. with 50 mg/kg BrdU daily for 3 days, and perfused 1 day later. […] Control animals received the corresponding vehicle injection (100 μl PBS supplemented with 0.5 mg defatted bovine serum albumin and 4% dimethylsulfoxide). BrdU was administered daily during the pharmacological administration period. In the case of experiments on kainate-induced excitotoxicity, animals were injected with 15 mg/kg kainate or vehicle. E17.5 mouse embryos from mothers injected twice with 100 mg/kg BrdU (30-min interval between injections) were obtained 1 h after the first injection.
At the end of the study, animals were euthanized and their brains were fixed into 4% paraformaldehyde in PBS until further analysis.
Mice were perfused and immunostaining was performed in 30-μm brain coronal free-floating sections [Rueda, D. et al., J. Biol. Chem. 277, 4645-50, 2002]. Sections were incubated with polyclonal anti-CB2 antibody together with anti-nestin, anti-Neu, or anti-GFAP antibodies followed by secondary staining for rabbit and mouse IgGs with highly cross-adsorbed AlexaFluor 594 and AlexaFluor 488 secondary antibodies (Molecular Probes), respectively. Neural progenitor proliferation was determined with anti-BrdU antibody and secondary anti-rat IgG-AlexaFluor 594 in sections counterstained with TOTO-3 iodide. Preparations were examined using Leica software and SP2 AOBS microscope with 2 passes with a Kalman filter and a 1024×1024 collection box. BrdU^+ cells were counted in the subgranular zone and granule cell layer of the dentate gyrus. A 1-in-6 series of adult hippocampal mouse sections located between 1.3 and 2.1 mm posterior to bregma were employed. […] Frozen mouse embryo sections were incubated with anti-BrdU antibody together with Yoyo-1 iodide, and positive cells were determined in 7 sections per animal.
Results are expressed as number of BrdU positive cells per section in the dentate gyrus of the animals.

[3] = tested on: ERK and Akt; assay: ERK and Akt phosphorylation in neural progenitors (Western blot); assay type: cell-based, mouse; settings: FIG. 3F
Experimental: Identical protein amounts of cleared cell extracts were subjected to SDS-PAGE, transferred to PVDF membranes, and following antibody incubations developed with enhanced chemiluminiscence detection kit [Aguado, T. et al., FASEB J. 19, 1704-6, 2005]. Loading controls were performed with an anti-α-tubulin antibody.

[4] = tested on: newborn neurons; settings: chronic administration, Jiang et al. 2005; cited from earlier work
[5] = tested on: embryonic hippocampal neural progenitor cells; settings: Jiang et al. 2005; cited from earlier work
[6] = tested on: neural progenitors; assay: BrdU cell proliferation assay in dissociated neurospheres; assay type: cell-based, mouse; settings: for number of BrdU-incorporating cells: 30 nM, 16 hours, FIG. 3D; for effect on HU-308 induction of cell proliferation: PD98059 10 μM, LY294,002 5 μM, with HU-308 30 nM, FIG. 3E, confirmed in neurosphere generation assays
Experimental: These studies involve the use of bromodeoxyuridine (BrdU), a thymidine analog incorporated into DNA during the S phase of the cell cycle, which allows visualizing cell proliferation. Neural progenitor proliferation was determined by quantifying BrdU-positive cells 16 hours after incubation with 10 μg/ml BrdU, followed by immunostaining [Aguado, T. et al., FASEB J. 19, 1704-6, 2005].
Results are expressed as percentage of BrdU-positive cells over total cells.

[7] = tested on: substantia nigra; settings: mice treated with the neurotoxin MPTP; cited from earlier work
[8] = tested on: basal ganglia; settings: cited from earlier work
[9] = molecular target: human CB1 receptors (Homo sapiens, UniProt P21554); settings: read-out: IC50 for binding to human CB1 receptors; as disclosed in WO 03/064359; cited from earlier work
Chain of human CB1 receptors (P21554 whole entry): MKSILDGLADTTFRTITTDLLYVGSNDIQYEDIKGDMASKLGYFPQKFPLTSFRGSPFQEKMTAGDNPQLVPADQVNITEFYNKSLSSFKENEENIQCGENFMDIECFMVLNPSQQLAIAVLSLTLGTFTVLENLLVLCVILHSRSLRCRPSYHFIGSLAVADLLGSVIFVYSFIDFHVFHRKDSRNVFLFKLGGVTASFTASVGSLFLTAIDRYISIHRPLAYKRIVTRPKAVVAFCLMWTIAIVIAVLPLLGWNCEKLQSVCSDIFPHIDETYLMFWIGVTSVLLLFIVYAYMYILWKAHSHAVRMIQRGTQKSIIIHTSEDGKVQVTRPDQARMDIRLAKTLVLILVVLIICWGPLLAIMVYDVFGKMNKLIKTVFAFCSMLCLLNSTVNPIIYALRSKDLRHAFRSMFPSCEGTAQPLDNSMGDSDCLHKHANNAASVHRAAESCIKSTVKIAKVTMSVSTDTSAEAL

[10] = tested on: cannabinoid receptors; settings: cited from earlier work

Compound: SR144528
- effect on agonist-increased primary neurosphere generation and self-renewal ([1]; 2 μM with HU-308 or JWH-133 30 nM, FIG. 3B, 3C): both actions were prevented
- effect on agonist-increased neurosphere generation in postnatal and adult progenitors ([1]; data not shown): this action was prevented
- hippocampal progenitor proliferation in vivo [2]: exerted the opposite action
- effect on HU-308 stimulation of ERK and Akt [3]: this action was prevented

Compound: CCCCCCC(C)(C)c1cc(O)c2c(c1)OC(C)(C)[C@@H]1CC=C(CO)C[C@@H]21 [HU-210, 7-hydroxy-Δ^6-tetrahydrocannabinol-1,1-dimethyl-heptyl]
- measures of anxiety- and depression-like behavior [4]: reduced measures of anxiety- and depression-like behavior
- number of newborn neurons [4]: increased the number of newborn neurons
- proliferation and differentiation of embryonic hippocampal neural progenitor cells [5]: promotes proliferation of said embryonic cells without affecting their differentiation

Compound: CCCC(C)(C)c1ccc2c(c1)OC(C)(C)[C@@H]1CC=C(C)C[C@@H]21 [JWH-133]
- number of BrdU-incorporating cells [6]: increased the number of BrdU-incorporating cells in a CB2-dependent manner
- neurosphere generation in CB2-deficient neural progenitors ([1]; FIG. 3B): neither HU-308 nor JWH-133 was able to enhance neurosphere generation
- percentage of neurosphere number relative to vehicle incubations ([1]; adult progenitors): 149±6%
- percentage of neurosphere number relative to vehicle incubations ([1]; postnatal progenitors): 154±22%
- primary neurosphere generation ([1]; FIG. 3B): increased
- neural progenitor self-renewal [1]: increased

Compound: COc1cccc(-c2cc(=O)c3ccccc3o2)c1N [PD98059]
- effect on HU-308 induction of cell proliferation [6]: prevented by both inhibitors

Compound: CCCCCCC(C)(C)c1cc(OC)c(C2C=C(CO)C3CC2C3(C)C)c(OC)c1 (single isomer, unassigned; (+)) [HU-308, (+) {4-[4-(1,1-dimethylheptyl)-2,6-dimethoxyphenyl]-6,6-dimethyl-bicyclo[3.1.1]hept-2-en-2-yl}-methanol]
- extent of cell death in the substantia nigra [7]: reduces the extent of cell death
- number of BrdU-incorporating cells [6]: increased the number of BrdU-incorporating cells in a CB2-dependent manner
- neurosphere generation in CB2-deficient neural progenitors ([1]; FIG. 3B): neither HU-308 nor JWH-133 was able to enhance neurosphere generation
- primary neurosphere generation ([1]; FIG. 3B): increased
- neural progenitor self-renewal [1]: increased
- hippocampal progenitor proliferation in CB2-deficient mice ([2]; CB2-/- adult mice, 15 mg/kg i.p. 5 days): lack of HU-308 agonistic effect
- hippocampal progenitor proliferation in vivo [2]: increased progenitor proliferation
- ERK and Akt phosphorylation ([3]; 15 min (ERK) or 2 min (Akt)): stimulated ERK and Akt
- GABA level and dopamine transmission in the non-lesioned side ([8]; non-lesioned side): did not alter the parameters monitored
- extent of cell death in the basal ganglia ([8]; rats, intrastriatal injection of malonate): reduces the extent of cell death
- pIC50 [9]: 5.44

Compound: O=c1cc(N2CCOCC2)oc2c(-c3ccccc3)cccc12 [LY294,002]
- effect on HU-308 induction of cell proliferation [6]: prevented by both inhibitors

Compound: CCCCCCC(C)(C)c1cc(O)c2c(c1)OC(C)(C)[C@@H]1CC=C(CO)C[C@@H]21 [HU-211, 7-hydroxy-Δ^6-tetrahydrocannabinol-1,1-dimethyl-heptyl]
- affinity to the cannabinoid receptors [10]: low affinity
